Measured values from US9958439B2, “Carbohydrate detection” (RICHTER LIFE SCIENCE DEVELOPMENT AB, priority 2012, dated 2018).
Read-outs that look alike come from different tables or passages of the source.

What was measured:
[1] = for RFU change (Correlation analysis): probe-specific excitation λ, emission 545 nm; for carbohydrate can be detected and/or differentiated by the LCO: conclusion from change in signal magnitude and/or shift in λmax
Procedure: (§1) 3 μM of each probe was applied to serial two fold dilutions of the carbohydrate of which the concentration shown here are 5 mg/ml (_.), 2.5 mg/ml (. . . ) 1.25 mg/ml (__) and 0 mg/ml (_). The excitation spectrum of the probe was analyzed for wavelengths 300-500 nm with emission read at 545 nm.
(§2) 3 μM of each probe was applied to serial two fold dilutions of the carbohydrate. Respective probes were excited at wavelengths unique to each probe (specified in figure), and emission was read at 545 nm.
(§3) Serial dilutions of carbohydrate suspensions were prepared in dH2O. Concentrations ranging from 10 to 0.039 mg/ml was used for β-1,3-glucan, cellulose and chitin, whereas 5 to 0.019 mg/ml was used for sodium alginate, glucose, amylose, glycogen, cellulobiose, heparin, chondroitin sulfate A. 3 μM of each LCO probe was added to 1 ml aliquots of each concentration of carbohydrate, after which 100 μl was dispensed in triplicates into 96 well plates. Excitation spectra were collected by exciting the sample from 300 to 500 nm and detecting emission at 545 nm. Detection of carbohydrate is concluded when there is a reproducible change in λmax and/or RFU intensity with reference to the negative control. Data from three concentrations, as well as the negative control are shown for each carbohydrate as specified in respective figure.
(§4) The excitation wavelength (emission detected at 545 nm) selected for each LCO is either (1) the λmax, or (2) the excitation wavelength which suffers the lowest background. A linear regression analysis is performed to determine the relationship between the carbohydrate concentration and RFU.

[2] = Procedure: as §1
3 μM of each probe was applied to serial two fold dilutions of the carbohydrate. Respective probes were excited at wavelengths unique to each probe (specified in figure), and emission was read at 545 nm. […] The mean increase in signal (_) with [Glucose] and the fitted regression line (__) is shown.
as §3, §4

[3] = for RFU change (Correlation analysis): probe-specific excitation λ, emission 545 nm; for carbohydrate can be detected and/or differentiated by the LCO: conclusion from change in signal magnitude and/or shift in λmax; remark: listed apart in the source
Procedure: (§5) The excitation spectrum of the probe was analyzed for wavelengths 300-500 nm with emission read at 545 nm.
(§6) 3 μM of each probe was applied to serial two fold dilutions of the insoluble carbohydrate. Respective probes were excited at wavelengths unique to each probe (specified in figure), and emission was read at 545 nm.
as §3, §4

[4] = remark: listed apart in the source
Procedure: as §1, with “of the insoluble carbohydrate of” for “of the carbohydrate of”, “. . ), 1.25 mg/ml” for “. . ) 1.25 mg/ml”
as §6, §3, §4

[5] = remark: listed apart in the source
Procedure: as §5, §2, §3, §4

[6] = for RFU change (Correlation analysis): probe-specific excitation λ, emission 545 nm; for carbohydrate can be detected and/or differentiated by the LCO: conclusion from change in signal magnitude and/or shift in λmax; for Gradient Parameters (gradient of regression line) / Linear relationship / Quality of Gradient: linear regression
Procedure: 3 μM of each probe was applied to serial two fold dilutions of the carbohydrate of which the concentration shown here are 5 mg/ml (_.), 2.5 mg/ml (. . . ), 1.25 mg/ml (__) and 0 mg/ml (_). The excitation spectrum of the probe was analyzed for wavelengths 300-500 nm with emission read at 545 nm.
as §2, §3, §4

[7] = Cellulobiose 5-0.019 mg/ml, 3 μM probe, spectral analysis, Excitation 300-500, Emission 545
[8] = amylose concentration vs RFU, linear regression
[9] = cellulobiose concentration vs RFU, linear regression
[10] = glucose concentration vs RFU, linear regression
[11] = Chitin 10-[…], 3 μM probe, spectral analysis, Excitation 300-500, Emission 545
[12] = cellulose concentration vs RFU, linear regression
[13] = chitin concentration vs RFU, linear regression
[14] = β-1,3-glucan concentration vs RFU, linear regression
[15] = sodium alginate concentration vs RFU, linear regression
[16] = Chondroitin Sulfate A 5-0.019 mg/ml, 3 μM probe, spectral analysis, Excitation 300-500, Emission 545
[17] = Chondroitin Sulfate A concentration vs RFU, linear regression
[18] = Glycogen 5-0.019 mg/ml, 3 μM probe, spectral analysis, Excitation 300-500, Emission 545

Structure (SMILES): O=C([O-])CC[C@H](NC(=O)Cc1cc(-c2cccs2)sc1-c1ccc(-c2sc(-c3cccs3)cc2CC(=O)N[C@@H](CCC(=O)[O-])C(=O)[O-])s1)C(=O)[O-].[Na+].[Na+].[Na+].[Na+] [pHTA-Glu, penta Hydrogen Thiophene Acetic acid Glutamic acid]
- RFU change (Correlation analysis) ([1]; Amylose 5-0.019 mg/ml, 3 μM probe): Increases
- RFU change (Signal deviation with increasing [Carbohydrate]) ([1]; Amylose 5-0.019 mg/ml, 3 μM probe, spectral analysis, Excitation 300-500, Emission 545): Increases
- carbohydrate can be detected and/or differentiated by the LCO ([1]; Amylose): can be detected and/or differentiated
- RFU change (Correlation analysis) ([1]; Cellulobiose 5-0.019 mg/ml, 3 μM probe): Increases
- RFU change (Signal deviation with increasing [Carbohydrate]) [1, 7]: Increases
- λmax change [1, 7]: No change
- carbohydrate can be detected and/or differentiated by the LCO ([1]; Cellulobiose): can be detected and/or differentiated
- Gradient Parameters (gradient of regression line) [1, 8]: 493.6 ± 346.9
- Quality of Gradient [1, 8]: Horizontal
- Gradient Parameters (gradient of regression line) [1, 9]: 178.6 ± 35.1
- Linear relationship [1, 9]: Significant
- Quality of Gradient [1, 9]: Positive
- Sensitivity ([1]; to amylose): Yes
- Sensitivity ([1]; to cellulobiose): Yes
- RFU change (Correlation analysis) ([2]; Glucose 5-0.019 mg/ml, 3 μM probe, probe-specific excitation λ, emission 545 nm): Decreases
- RFU change (Signal deviation with increasing [Carbohydrate]) ([2]; Glucose 5-0.019 mg/ml, 3 μM probe, spectral analysis, Excitation 300-500, Emission 545): Decreases
- carbohydrate can be detected and/or differentiated by the LCO ([2]; Glucose, conclusion from change in signal magnitude and/or shift in λmax): can be detected and/or differentiated
- Gradient Parameters (gradient of regression line) [2, 10]: −116.0 ± 41.0
- Linear relationship [2, 10]: Significant
- Quality of Gradient [2, 10]: Negative
- Sensitivity ([2]; to glucose): Yes
- RFU change (Correlation analysis) ([3]; Cellulose 10-[…], 3 μM probe): Decrease
- RFU change (Signal deviation with increasing [Carbohydrate]) ([3]; Cellulose 10-[…], 3 μM probe, spectral analysis, Excitation 300-500, Emission 545): Unclear
- RFU change (Correlation analysis) ([3]; Chitin 10-[…], 3 μM probe): Increases
- RFU change (Signal deviation with increasing [Carbohydrate]) [3, 11]: Increases
- λmax change [3, 11]: Redshift
- carbohydrate can be detected and/or differentiated by the LCO ([3]; Chitin): can be detected and/or differentiated
- Gradient Parameters (gradient of regression line) [3, 12]: −139.6 ± 344.8
- Quality of Gradient [3, 12]: Horizontal
- Gradient Parameters (gradient of regression line) [3, 13]: 2824 ± 156.6
- Linear relationship [3, 13]: Significant
- Quality of Gradient [3, 13]: Positive
- Sensitivity ([3]; to cellulose): No
- Sensitivity ([3]; to chitin): Yes
- Sensitivity ([3]; to β-1,3-glucan): Yes
- carbohydrate can be detected and/or differentiated by the LCO ([3]; β-1,3-Glucan): can be detected and/or differentiated
- RFU change (Correlation analysis) ([3]; β-1,3-glucan 10-[…], 3 μM probe): Decrease
- RFU change (Signal deviation with increasing [Carbohydrate]) ([3]; β-1,3-glucan 10-[…], 3 μM probe, spectral analysis, Excitation 300-500, Emission 545): Decrease
- Gradient Parameters (gradient of regression line) [3, 14]: −898.7 ± 117.0
- Quality of Gradient [3, 14]: Negative
- RFU change (Correlation analysis) ([4]; Sodium alginate 5-0.019 mg/ml, 3 μM probe, probe-specific excitation λ, emission 545 nm): Increases
- RFU change (Signal deviation with increasing [Carbohydrate]) ([4]; Sodium alginate 5-0.019 mg/ml, 3 μM probe, spectral analysis, Excitation 300-500, Emission 545): Increases
- Gradient Parameters (gradient of regression line) [4, 15]: 88.7 ± 62.0
- Quality of Gradient [4, 15]: Horizontal
- Sensitivity ([4]; to sodium alginate): No
- RFU change (Correlation analysis) ([5]; Chondroitin Sulfate A 5-0.019 mg/ml, 3 μM probe, probe-specific excitation λ, emission 545 nm): Unclear
- RFU change (Signal deviation with increasing [Carbohydrate]) [5, 16]: Decreases
- λmax change [5, 16]: No change
- Gradient Parameters (gradient of regression line) [5, 17]: 125.3 ± 156.5
- Quality of Gradient [5, 17]: Horizontal
- Sensitivity ([5]; to Chondroitin Sulfate A): No
- RFU change (Correlation analysis) ([6]; Glycogen 5-0.019 mg/ml, 3 μM probe): Decreases
- RFU change (Signal deviation with increasing [Carbohydrate]) [6, 18]: Decreases
- λmax change [6, 18]: Redshift
- carbohydrate can be detected and/or differentiated by the LCO ([6]; Glycogen): can be detected and/or differentiated
- RFU change (Correlation analysis) ([6]; Heparin 5-0.019 mg/ml, 3 μM probe): Unclear
- RFU change (Signal deviation with increasing [Carbohydrate]) ([6]; Heparin 5-0.019 mg/ml, 3 μM probe, spectral analysis, Excitation 300-500, Emission 545): Unclear
- carbohydrate can be detected and/or differentiated by the LCO ([6]; Heparin): can be detected and/or differentiated
- Gradient Parameters (gradient of regression line) ([6]; glycogen concentration vs RFU): −349.2 ± 96.7
- Linear relationship ([6]; glycogen concentration vs RFU): Significant
- Quality of Gradient ([6]; glycogen concentration vs RFU): Negative
- Gradient Parameters (gradient of regression line) ([6]; heparin concentration vs RFU): −12.4 ± 108
- Linear relationship ([6]; heparin concentration vs RFU): Not Significant
- Quality of Gradient ([6]; heparin concentration vs RFU): Horizontal
- Sensitivity ([6]; to glycogen): Yes
- Sensitivity ([6]; to heparin): No
